Tested on: NCI-H226
Assay: 72H TEAD Proliferation Assay (Cell Titer Glo 2.0)
Type: cell-based
Settings: Homo sapiens, NCI-H226, 72 h, CTG 2.0, cell line not given (NCI-H226 responsive, NCI-H28 non-responsive)
Description: 72H TEAD Proliferation Assay.
The effect of TEAD inhibition on cell proliferation was assayed using Cell Titer Glo (CTG) 2.0 to measure response in mesothelioma cell lines NCI-H226 (ATCC, #CRL-5826) and NCI-H28 (ATCC, #CRL-5820).
The 72H TEAD Proliferation assay utilizes Cell Titer-Glo 2.0 (Promega, #G9243) to measure the proliferation of cells in the presence or absence of compound. Cell Titer-Glo 2.0 determines the amount of viable cells by quantifying ATP (an indication of metabolically active cells). It utilizes the conversion of Luciferin to Oxyluciferin and a luminescent signal with the use of ATP to report the quantity of viable cells in culture. Within cells that are continually growing, ATP is being synthesized to meet their metabolic demands, meanwhile the opposite is true for cells that are dying or slowing down their proliferation and either no longer using ATP or are using less, respectively. The NF2-deficient NCI-H226 has been genetically validated as a cell line that is sensitive to TEAD inhibition. The NF2-wild type NCI-H28 has been genetically validated as a cell line that is not sensitive to TEAD inhibition and grows independently of TEAD activity.
Compounds were screened against the responsive NCI-H226 cell line to assess the compounds' ability to inhibit TEAD and cell growth. Compounds were also screened against the non-responsive NCI-H28 cell line to ascertain whether the inhibition of cell growth was due to inhibition of the target TEAD or whether the inhibition was due to off-target cytotoxicity.
• 1) Assay ready plates (ARPs) were prepared by Echo acoustic liquid handler. […] After CTG addition, plates were placed on shaker at 800 RPM for 15 minutes at room temperature and kept in the dark. Luminescence was measured using EnVision multilabel plate reader with ultra-sensitive detection module. • 9) Data Analysis: First background luminescence (no CTG wells) was subtracted from luminescence reading of all wells, then TO luminescence was subtracted from T72 luminescence. To compare anti-proliferative effect of compounds, GI50 was obtained by fitting dose response curves with nonlinear regression curve fit.

| GI50 | SMILES |
| --- | --- |
| ≤ 1 µM | C=CC(=O)NCc1nc(-c2ccc(C(C)(C)C)cc2)c2ccc(F)cc2n1 [I-446, N-((4-(4-(tert-butyl)phenyl)-7-fluoroquinazolin-2-yl)methyl)acrylamide] |
| ≤ 1 µM | CC(C)(C)c1ccc(-c2nc3cc(C(=O)O)cnc3n3cccc23)cc1 [I-139, 6-(4-(tert-Butyl)phenyl)pyrido[3,2-e]pyrrolo[1,2-a]pyrazine-3-carboxylic acid] |
| 1 to 5 µM | C=CC(=O)Nc1ccc2cnc(-c3ccc(F)cc3)nc2c1 [I-82, N-(2-(4-Fluorophenyl)quinazolin-7-yl)acrylamide] |
| 1 to 5 µM | COC[C@H](C)NC(=O)c1cnc2c(N3CCC(CC(F)(F)F)CC3)cc(OC)cc2c1 [I-253, (S)-6-methoxy-N-(1-methoxypropan-2-yl)-8-(4-(2,2,2-trifluoroethyl)piperidin-1-yl)quinoline-3-carboxamide] |
| 1 to 5 µM | C=CC(=O)Nc1ccc2cnc(-c3ccc(C)cc3)nc2c1 [I-81, N-(2-(p-Tolyl)quinazolin-7-yl)acrylamide] |
| ≤ 1 µM | CC[C@H](CO)NC(=O)c1ccc2c(C)cc(-c3ccc(C(F)(F)F)cc3)nc2c1 [I-265, (R)—N-(1-hydroxybutan-2-yl)-4-methyl-2-(4-(trifluoromethyl)phenyl)quinoline-7-carboxamide] |
| ≤ 1 µM | COc1cc(-c2ccc(C(F)(F)F)cc2)nc2cc(C(=O)N[C@@H](CO)c3ccccc3)ccc12 [I-345, (R)—N-(2-hydroxy-1-phenylethyl)-4-methoxy-2-(4-(trifluoromethyl)phenyl)quinoline-7-carboxamide] |
| 1 to 5 µM | O=C(O)c1ccc2c(c1)nc(NCCC(F)(F)C(F)(F)F)c1cccn12 [I-121, 4-((3,3,4,4,4-Pentafluorobutyl)amino)pyrrolo[1,2-a]quinoxaline-7-carboxylic acid] |
| 5 to 10 µM | N#Cc1cc(C(F)(F)F)ccc1-c1nc2cc(C(=O)O)ccc2n2cccc12 [I-54, 4-(2-Cyano-4-(trifluoromethyl)phenyl)pyrrolo[1,2-a]quinoxaline-7-carboxylic acid] |
| 1 to 5 µM | CS(=O)(=O)NCc1cn2cccc2c(-c2ccc(C(F)(F)F)cc2)n1 [I-320, N-((1-(4-(trifluoromethyl)phenyl)pyrrolo[1,2-a]pyrazin-3-yl)methyl)methanesulfonamide] |
| ≤ 1 µM | C=CC(=O)Nc1ccc2c(c1)nc(-c1ccc(C(C)(C)C)cc1)c1nccn12 [I-91, N-(4-(4-(tert-butyl)phenyl)imidazo[1,2-a]quinoxalin-7-yl)acrylamide] |
| 1 to 5 µM | O=C(O)c1ccc2c(c1)nc(-c1ccc(C3(C(F)(F)F)CC3)cc1)c1cccn12 [I-196, 4-(4-(1-(trifluoromethyl)cyclopropyl)phenyl)pyrrolo[1,2-a]quinoxaline-7-carboxylic acid] |
| ≤ 1 µM | C=CC(=O)NCc1cn2cc(C)nc2c(-c2ccc(C(F)(F)F)cc2)n1 [I-241, N-((2-methyl-8-(4-(trifluoromethyl)phenyl)imidazo[1,2-a]pyrazin-6-yl)methyl)acrylamide] |
| 1 to 5 µM | C=CS(=O)(=O)NCc1cn2ccnc2c(-c2ccc(C(C)(C)C)cc2)n1 [I-141, N-((8-(4-(tert-Butyl)phenyl)imidazo[1,2-a]pyrazin-6-yl)methyl)ethenesulfonamide] |
| 5 to 10 µM | COc1cc(-c2ccc(C(F)(F)F)cc2)nc2cc(C(=O)N3CCC[C@@H]3CO)ccc12 [I-371, (R)-(2-(hydroxymethyl)pyrrolidin-1-yl) (4-methoxy-2-(4-(trifluoromethyl)phenyl)quinolin-7-yl)methanone] |
| ≤ 1 µM | Cc1cc(-c2ccc(C(F)(F)F)cc2)nc2cc(C(=O)N[C@@H](C)CO)ccc12 [I-262, (S)—N-(1-hydroxypropan-2-yl)-4-methyl-2-(4-(trifluoromethyl)phenyl)quinoline-7-carboxamide] |
| 1 to 5 µM | COc1cc(-c2ccc(C(F)(F)F)cc2)nc2cc(C(=O)N[C@@H](CO)CC(C)C)ccc12 [I-370, (R)—N-(1-hydroxy-4-methylpentan-2-yl)-4-methoxy-2-(4-(trifluoromethyl)phenyl)quinoline-7-carboxamide] |
| ≤ 1 µM | Cc1cc(-c2ccc(C(F)(F)F)cc2)nc2cc(C(=O)N[C@H](C)CO)ccc12 [I-261, (R)—N-(1-hydroxypropan-2-yl)-4-methyl-2-(4-(trifluoromethyl)phenyl)quinoline-7-carboxamide] |
| ≤ 1 µM | O=C(N[C@@H](CO)c1ccccc1)c1ccc2ccc(-c3ccc(C(F)(F)F)cc3)nc2c1 [I-428, (R)—N-(2-hydroxy-1-phenylethyl)-2-(4-(trifluoromethyl)phenyl)quinoline-7-carboxamide] |

| GI50 | SMILES |
| --- | --- |
| ≤ 1 µM | C=CC(=O)NCc1cn2cccc2c(-c2ccc(C(F)(F)F)cn2)n1 [I-314, N-((1-(5-(Trifluoromethyl)pyridin-2-yl)pyrrolo[1,2-a]pyrazin-3-yl)methyl)acrylamide] |
| > 10 µM | O=C(O)c1ccc2c(c1)nc(NCCCC(F)(F)F)c1cccn12 [I-1, 4-((4,4,4-Trifluorobutyl)amino) pyrrolo[1,2-a]quinoxaline-7-carboxylic acid] |
| 1 to 5 µM | C=CC(=O)Nc1ccc2ncc(-c3ccc(C(C)(C)C)cc3)nc2c1 [I-92, N-(3-(4-(tert-butyl)phenyl)quinoxalin-6-yl)acrylamide] |
| 1 to 5 µM | O=C(O)c1cc(CO)c2c(c1)nc(N1CCC3(CC1)CC3)c1cccn12 [I-278, 9-(hydroxymethyl)-4-(6-azaspiro[2.5]octan-6-yl)pyrrolo[1,2-a]quinoxaline-7-carboxylic acid] |
| ≤ 1 µM | C=CC(=O)NCc1cn2ccnc2c(Oc2ccc(C(F)(F)F)cc2)n1 [I-174, N-((8-(4-(trifluoromethyl)phenoxy)imidazo[1,2-a]pyrazin-6-yl)methyl)acrylamide] |
| 1 to 5 µM | O=C(O)c1ccc2c(c1)nc(C13CC(C(F)(F)F)(C1)C3)c1cccn12 [I-272, 4-(3-(trifluoromethyl)bicyclo[1.1.1]pentan-1-yl)pyrrolo[1,2-a]quinoxaline-7-carboxylic acid] |
| 1 to 5 µM | C=CC(=O)Nc1ccc2c(C(F)(F)F)cc(-c3ccc(C(C)(C)C)cc3)nc2c1 [I-112, N-(2-(4-(tert-Butyl)phenyl)-4-(trifluoromethyl)quinolin-7-yl)acrylamide] |
| ≤ 1 µM | CC(C)(C)c1ccc(-c2nc3cc(C(=O)O)ccc3n3cc(OC(F)F)cc23)cc1 [I-274, 4-(4-(tert-butyl)phenyl)-2-(difluoromethoxy)pyrrolo[1,2-a]quinoxaline-7-carboxylic acid] |
| 1 to 5 µM | Cc1cc(-c2ccc(C(C)(C)C)cc2)nc2cc(C(=O)O)ccc12 [I-88, 2-(4-(tert-Butyl)phenyl)-4-methylquinoline-7-carboxylic acid] |
| > 10 µM | CC(C)(C)c1ccc(-c2ncn3cc(C(=O)O)ccc23)cc1 [I-144, 1-(4-(tert-Butyl)phenyl)imidazo[1,5-a]pyridine-6-carboxylic acid] |
| 1 to 5 µM | O=C(O)c1ccc2c(c1)nc(-c1ccc(OC(F)F)cc1)c1cccn12 [I-193, 4-(4-(difluoromethoxy)phenyl)pyrrolo[1,2-a]quinoxaline-7-carboxylic acid] |
| ≤ 1 µM | O=C(O)c1ccc2c(c1)nc(-c1ccc(SC(F)(F)F)cc1)c1cccn12 [I-194, 4-(4-((trifluoromethyl)thio)phenyl)pyrrolo[1,2-a]quinoxaline-7-carboxylic acid] |
| 1 to 5 µM | CC(C)(C)c1ccc(-c2nc3cc(C(=O)O)ccc3n3nccc23)cc1 [I-117, 4-(4-(tert-Butyl)phenyl)pyrazolo[1,5-a]quinoxaline-7-carboxylic acid] |
| 1 to 5 µM | O=C(O)c1ccc2c(c1)nc(OC1CCC(C(F)(F)F)CC1)c1cccn12 (mixture of isomers) [I-127, 4-((4-(Trifluoromethyl)cyclohexyl)oxy)pyrrolo[1,2-a]quinoxaline-7-carboxylic acid] |
| ≤ 1 µM | C#Cc1cc(-c2ccc(C(F)(F)F)cc2)nc2cc(C(=O)N[C@H](CC)CO)ccc12 [I-400, (R)-4-ethynyl-N-(1-hydroxybutan-2-yl)-2-(4-(trifluoromethyl)phenyl)quinoline-7-carboxamide] |
| 1 to 5 µM | COc1cc(-c2ccc(C(F)(F)F)cc2)nc2cc(C(=O)NC(CO)C3CCOCC3)ccc12 (single isomer, unassigned) [I-368, N-(2-hydroxy-1-(tetrahydro-2H-pyran-4-yl)ethyl)-4-methoxy-2-(4-(trifluoromethyl)phenyl)quinoline-7-carboxamide] |
| 1 to 5 µM | CN(C)c1cc(-c2ccc(C(F)(F)F)cc2)nc2cc(C(=O)O)ccc12 [I-392, 4-(dimethylamino)-2-(4-(trifluoromethyl)phenyl)quinoline-7-carboxylic acid] |
| 1 to 5 µM | CN(C)CC(=O)Nc1ccc2c(c1)nc(-c1ccc(C(C)(C)C)cc1)c1cccn12 [I-205, N-(4-(4-(tert-butyl)phenyl)pyrrolo[1,2-a]quinoxalin-7-yl)-2-(dimethylamino)acetamide] |

Reference: US12655150B2 (Cedilla Therapeutics, Inc., priority 2021, dated 2026)
